Test results from PubChem BioAssay AID330 (DTP/NCI, 2004).
“And” between values parts separate entries of the source, which are not always exact repeats. Equal values may be shown once. Toxic doses and inconclusive results are not listed. Rule for the calls: active = survival T/C of 150% or more; inactive = T/C below 125% in these data.

System: P388 leukemia ip, CD2F1 mice, survival T/C
Experiment: NCI In Vivo Anticancer Drug Screen. Data for tumor model P388 Leukemia (intraperitoneal) in CD2F1 (CDF1) mice
Conditions: endpoint: median survival time, higher = longer survival
Protocol: The antitumor activity of compounds was measured in mice bearing transplantable tumors. Survival or tumor size were measured and the results are expressed as the measurement made in the treated group (T) divided by the measurement made in the vehicle treated control group (C). The tumor model used in this assay is P388 Leukemia (intraperitoneal) in CD2F1 (CDF1) mice

[1] = dose: 50.0 mg/kg/injection, schedule: Q01DX009 (ip), vehicle: Klucel (hydroxypropylcellulose) (HPC)
[2] = dose: 50.0 mg/kg/injection, schedule: Q01DX009 (ip), vehicle: saline with Tween-80
[3] = dose: 100.0 mg/kg/injection, schedule: Q01DX009 (ip), vehicle: Klucel (hydroxypropylcellulose) (HPC)
[4] = dose: 100.0 mg/kg/injection, schedule: Q01DX009 (ip), vehicle: saline with Tween-80
[5] = dose: 200.0 mg/kg/injection, schedule: Q01DX009 (ip), vehicle: Klucel (hydroxypropylcellulose) (HPC)
[6] = dose: 200.0 mg/kg/injection, schedule: Q01DX009 (ip), vehicle: saline with Tween-80
[7] = dose: 400.0 mg/kg/injection, schedule: Q01DX009 (ip), vehicle: saline with Tween-80
[8] = dose: 50.0 mg/kg/injection, schedule: Q01DX005 (ip), vehicle: saline with Tween-80
[9] = dose: 100.0 mg/kg/injection, schedule: Q01DX005 (ip), vehicle: saline with Tween-80
[10] = dose: 100.0 mg/kg/injection, schedule: Q01DX009 (ip), vehicle: saline
[11] = dose: 200.0 mg/kg/injection, schedule: Q01DX009 (ip), vehicle: saline
[12] = dose: 25.0 mg/kg/injection, schedule: Q01DX009 (ip), vehicle: saline with Tween-80
[13] = dose: 25.0 mg/kg/injection, schedule: Q01DX001 (ip), vehicle: saline with Tween-80
[14] = dose: 50.0 mg/kg/injection, schedule: Q01DX001 (ip), vehicle: saline with Tween-80
[15] = dose: 100.0 mg/kg/injection, schedule: Q01DX001 (ip), vehicle: saline with Tween-80
[16] = dose: 100.0 mg/kg/injection, schedule: Q04DX003 (ip), vehicle: saline with Tween-80
[17] = dose: 200.0 mg/kg/injection, schedule: Q04DX003 (ip), vehicle: saline with Tween-80
[18] = dose: 25.0 mg/kg/injection, schedule: Q01DX009 (ip), vehicle: other
[19] = dose: 50.0 mg/kg/injection, schedule: Q01DX009 (ip), vehicle: other
[20] = dose: 100.0 mg/kg/injection, schedule: Q01DX009 (ip), vehicle: other
[21] = dose: 60.0 mg/kg/injection, schedule: Q01DX005 (ip), vehicle: saline with Tween-80
[22] = dose: 50.0 mg/kg/injection, schedule: Q01DX005 (ip), vehicle: Klucel (hydroxypropylcellulose) (HPC)
[23] = dose: 100.0 mg/kg/injection, schedule: Q01DX005 (ip), vehicle: Klucel (hydroxypropylcellulose) (HPC)
[24] = dose: 200.0 mg/kg/injection, schedule: Q01DX005 (ip), vehicle: Klucel (hydroxypropylcellulose) (HPC)

Measured: T/C

C1=CC(=C(c2ccccc2)c2ccccc2)C=C1
inactive: [1] 98 % of control | [2] 107 % of control | [3] 100 % of control | [4] 104 % of control | [5] 101 % of control | [6] 102 % of control | [7] 102 % of control

c1ccc(-c2nc3cc4c(cc3n3cccc23)oc2ccccc24)cc1
inactive: dose: 25.0 mg/kg/injection, schedule: Q01DX005 (ip), vehicle: saline with Tween-80 95 % of control | [8] 100 % of control | [9] 94 % of control

CC(=O)C(C)P(=O)(O)O (stereo not drawn)
inactive: dose: 50.0 mg/kg/injection, schedule: Q01DX009 (ip), vehicle: saline 99 % of control | [10] 101 % of control | [11] 106 % of control

O=[N+]([O-])c1ccc(-c2nc(/C=N/N3CCSCC3)cs2)s1
inactive: [12] 100 % of control | [2] 95 % of control | [4] 95 % of control

c1ccc2c(NCCCNCCCNc3c4ccccc4nc4ccccc34)c3ccccc3nc2c1
inactive: dose: 0.63 mg/kg/injection, schedule: Q01DX009 (ip), vehicle: other 112 % of control | dose: 1.25 mg/kg/injection, schedule: Q01DX009 (ip), vehicle: other 102 % of control and 118 % of control | dose: 2.5 mg/kg/injection, schedule: Q01DX009 (ip), vehicle: other 112 % of control | dose: 5.0 mg/kg/injection, schedule: Q01DX009 (ip), vehicle: other 118 % of control | dose: 10.0 mg/kg/injection, schedule: Q01DX009 (ip), vehicle: other 110 % of control

Cc1ccc([Se]CCBr)cc1
inactive: dose: 25.0 mg/kg/injection, schedule: Q01DX001 (ip), vehicle: saline 108 % of control | dose: 50.0 mg/kg/injection, schedule: Q01DX001 (ip), vehicle: saline 101 % of control | dose: 100.0 mg/kg/injection, schedule: Q01DX001 (ip), vehicle: saline 96 % of control

CSC(=S)NN=C(c1ccccc1)c1ccccc1
inactive: dose: 0.78 mg/kg/injection, schedule: Q01DX009 (ip), vehicle: saline 102 % of control | dose: 1.56 mg/kg/injection, schedule: Q01DX009 (ip), vehicle: saline 102 % of control | dose: 3.12 mg/kg/injection, schedule: Q01DX009 (ip), vehicle: saline 100 % of control | [10] 113 % of control | [11] 96 % of control

CC1=CCc2c(c(NS(=O)(=O)c3ccccc3)c3ccccc3c2NS(=O)(=O)c2ccccc2)C1
inactive: [13] 105 % of control | [14] 90 % of control | [15] 90 % of control

CCCCNC(=O)OCCN(CCOC(=O)NCCCC)C(=O)N1c2ccccc2Sc2ccccc21
inactive: dose: 50.0 mg/kg/injection, schedule: Q04DX003 (ip), vehicle: saline with Tween-80 98 % of control | [16] 90 % of control | [17] 90 % of control

COC(=O)/C=N/NS(=O)(=O)c1ccc(C)cc1
inactive: dose: 12.5 mg/kg/injection, schedule: Q01DX009 (ip), vehicle: other 102 % of control | [18] 102 % of control | [19] 100 % of control | [20] 100 % of control

CCc1ccc(NC2=NCCO2)cc1
inactive: dose: 12.5 mg/kg/injection, schedule: Q01DX009 (ip), vehicle: saline with Tween-80 100 % of control | [12] 105 % of control | [2] 100 % of control

CC(C)C1OCC(CO)([N+](=O)[O-])CO1 (stereo not drawn)
inactive: [21] 102 % of control | dose: 120.0 mg/kg/injection, schedule: Q01DX005 (ip), vehicle: saline with Tween-80 100 % of control | dose: 240.0 mg/kg/injection, schedule: Q01DX005 (ip), vehicle: saline with Tween-80 93 % of control

Cc1cccc2c(=O)n(C(=O)c3ccccc3)c(N)nc12
inactive: [13] 88 % of control | [14] 90 % of control | [15] 89 % of control | dose: 200.0 mg/kg/injection, schedule: Q01DX001 (ip), vehicle: saline with Tween-80 93 % of control

N#CC1Oc2ccccc2N1C(=O)c1ccccc1 (stereo not drawn)
inactive: [8] 101 % of control | [9] 102 % of control | dose: 200.0 mg/kg/injection, schedule: Q01DX005 (ip), vehicle: saline with Tween-80 90 % of control

CC(=O)c1cc[n+](Cc2cc3ccccc3nc2Br)cc1
inactive: dose: 12.5 mg/kg/injection, schedule: Q04DX002 (ip), vehicle: saline 101 % of control | dose: 25.0 mg/kg/injection, schedule: Q04DX002 (ip), vehicle: saline 102 % of control | dose: 50.0 mg/kg/injection, schedule: Q04DX002 (ip), vehicle: saline 101 % of control

Cc1cc(N/N=C/c2ccc([N+](=O)[O-])o2)c2cc3c(cc2n1)OCO3
inactive: [22] 91 % of control | [23] 98 % of control | [24] 96 % of control

C=C1C(=O)CCC1C(=O)O (stereo not drawn)
inactive: dose: 178.0 mg/kg/injection, schedule: Q01DX001 (ip), vehicle: saline 100 % of control | dose: 266.0 mg/kg/injection, schedule: Q01DX001 (ip), vehicle: saline 109 % of control | dose: 400.0 mg/kg/injection, schedule: Q01DX001 (ip), vehicle: saline 114 % of control | dose: 600.0 mg/kg/injection, schedule: Q01DX001 (ip), vehicle: saline 118 % of control | dose: 900.0 mg/kg/injection, schedule: Q01DX001 (ip), vehicle: saline 112 % of control

NNC1=Nc2ccccc2N=C2CCSCC21 (stereo not drawn)
inactive: [1] 97 % of control | [3] 112 % of control | [5] 108 % of control

COc1ccc(CCN2C(=O)C(=O)N(C(C)C)C2=O)cc1OC
inactive: [1] 86 % of control | [3] 91 % of control | [5] 95 % of control

CCOc1cccc(/C=N/n2c(-c3ccccc3)nc3ccccc3c2=O)c1O
inactive: [2] 99 % of control | [4] 96 % of control | [6] 105 % of control

CCOC(=O)C(CCCOC1CCCCO1)(C(=O)CC)c1ccccc1 (stereo not drawn) (tested in a mixture with another compound)
inactive: dose: 50.0 mg/kg/injection, schedule: Q01DX009 (ip), vehicle: acetone 111 % of control | dose: 100.0 mg/kg/injection, schedule: Q01DX009 (ip), vehicle: acetone 103 % of control | dose: 200.0 mg/kg/injection, schedule: Q01DX009 (ip), vehicle: acetone 107 % of control

O=S(=O)(CCCCl)SCCCCl
inactive: dose: 7.5 mg/kg/injection, schedule: Q01DX005 (ip), vehicle: saline with Tween-80 104 % of control | dose: 15.0 mg/kg/injection, schedule: Q01DX005 (ip), vehicle: saline with Tween-80 105 % of control | dose: 30.0 mg/kg/injection, schedule: Q01DX005 (ip), vehicle: saline with Tween-80 103 % of control and 105 % of control | [21] 96 % of control

CNC(=S)N/N=C(C)/C=C/c1ccccc1
inactive: [22] 107 % of control | [23] 101 % of control | [24] 101 % of control

Cc1ccc2c(c1)Sc1ccc3ccccc3c1N2
inactive: [4] 100 % of control | [16] 90 % of control | [6] 109 % of control | [17] 100 % of control | [7] 113 % of control | dose: 400.0 mg/kg/injection, schedule: Q04DX003 (ip), vehicle: saline with Tween-80 100 % of control

COc1cc(Br)c(C(=O)Nc2ccccc2)cc1OC
inactive: [18] 97 % of control | [19] 97 % of control | [20] 91 % of control | dose: 200.0 mg/kg/injection, schedule: Q01DX009 (ip), vehicle: other 97 % of control | dose: 400.0 mg/kg/injection, schedule: Q01DX009 (ip), vehicle: other 97 % of control
